Reference: patent US20050019386A1 (priority 2001, published 2005)

Assays:
[1] = tested on: two human glioblastoma in a nude model; conditions: free form, 12.5 mg/kg/4 days; cited from earlier work
[2] = tested on: ovarian carcinoma (human) on a nude mouse; assay: Oral application, tumour mass of human ovarian carcinoma on nude mouse; format: in vivo; conditions: oral form of administration, Taxol 50 mg bolus

Question: For CC(=O)O[C@H]1C(=O)[C@@]2(C)[C@H]([C@H](OC(=O)c3ccccc3)[C@]3(O)C[C@H](OC(=O)[C@H](O)[C@@H](NC(=O)c4ccccc4)c4ccccc4)C(C)=C1C3(C)C)[C@]1(OC(C)=O)CO[C@@H]1C[C@@H]2O [unencapsulated taxol, paclitaxel], which “growth of the tumour” value [1] is on record?
Answer: Its value is “significant reduction of the growth of the tumour”.

Question: What about the “effectivity determined on the basis of the tumour mass” value [2] of the same compound?
Answer: The value was “hardly being reduced”.
